Reference: PMC8781869, “Thioester-Containing Benzoate Derivatives with α-Glucosidase Inhibitory Activity from the Deep-Sea-Derived Fungus Talaromyces indigoticus FS688” (Marine Drugs, 2021)

How the values were obtained:
[1] = tested on: α-glucosidase from Saccharomyces cerevisiae; test: α-Glucosidase inhibition assay (pNPG substrate, absorbance at 405 nm); assay type: biochemical; conditions: for α-glucosidase inhibitory effect at a single concentration: at a concentration of 100 μM; for IC50: in vitro, PBS pH 7.0, 37 °C, triplicate, read-out: α-Glucosidase inhibitory activity IC50
Description: An […] were used to measure the circular dichroism (ECD) and the UV spectra, respectively. ECD and UV spectra were recorded at the range of 200–400 nm under N2 gas […]. IR spectra were recorded on a Shimadzu IR Affinity-1 spectrophotometer. All the NMR spectra were measured on a 600 MHz Bruker Avance-III HD spectrometer and the tetramethylsilane was used as an internal standard. HR-ESI-MS was measured on a Bruker maXis high-resolution mass spectrometer. A Shimadzu LC-20 AT (equipped with an SPD-M20A PDA detector) was used for the preparative separations. The ACE 5 PFP-C18 column (250 × 10.0 mm, 5 μm, 12 nm) was used for semi-preparative HPLC separation and the CHIRAL-MD (2)-RH column (250 × 10.0 mm, 5 μm) was used for chiral separation (Guangzhou FLM Scientific Instrument Co., Ltd, Guangzhou, China). The commercial silica gel (SiO2; 200–300 mesh; Qingdao Marine Chemical Plant, Qingdao, China) and Sephadex LH-20 gel (GE Healthcare Bio-Sciences ABSE-751, Uppsala, Sweden) were used for column chromatography. All solvents were of analytical grade (Guangzhou Chemical Regents Company, Ltd., Guangzhou, China). The natural sea salt was purchased from Guangdong Yueyan saltern. The α-glucosidase from Saccharomyces cerevisiae and p-nitrophenyl-α-d-glucopyranoside (p-NPG) used in bioassays were purchased from Sigma-Aldrich (St. Louis, MO, USA).
The method used for the α-glucosidase inhibitory activity assay was based on previously reported literature with slight modification. The pre-reaction mixture consisted of 130 μL of PBS (100 mM, pH 7.0), 30 μL of enzyme (1 U/mL) and 0.5 μL of the test compounds at different concentrations. After incubation at 37 °C for 10 min, 40 μL of pNPG was added and the mixture was further incubated at 37 °C for 15 min. Finally, the absorbance was measured at 405 nm on an automatic microplate reader. […] All experiments were carried out in triplicate.

α-glucosidase = tested on: α-glucosidase; set-up: method as in PMID 24955555; conditions: previously reported screening; cited from earlier work

α-glucosidase inhibitory effect at a single concentration [1]	IC50 [1] [µM]	Compound	α-glucosidase inhibitor (qualitative) (α-glucosidase)
weak inhibitory effects	> 100	CSC(=O)c1c(C)cc(O)c(CC=C(C)C)c1O [Compound 3, Eurothiocin E]	
	33.6	CSC(=O)c1c(C)cc(O)c(C/C=C(\C)CO)c1O [Compound 4, Eurothiocin F]	
	72.1	CSC(=O)c1c(C)cc(O)c(CCC(C)(C)O)c1O [Compound 5, Eurothiocin G]	

Further lines, the compound ahead of its results:

Compound	α-glucosidase inhibitory effect at a single concentration [1]	IC50 [1] [µM]	α-glucosidase inhibitor (qualitative) (α-glucosidase)
COc1c(C)c(C(=O)SC)c(O)c2c1OC(C(C)(C)O)C2 (stereo not drawn) [Compound 1, Eurothiocin C]	weak inhibitory effects		
CSC(=O)c1c(C)cc2c(c1O)CC(C(C)(C)OC1OC(CO)C(O)C(O)C1O)O2 (stereo not drawn) [Compound 2, Eurothiocin D]		5.4	
COc1cc(O)cc(C)c1C(=O)SC [Compound 6, Eurothiocin H]	weak inhibitory effects	> 100	
CSC(=O)c1c(C)cc2c(c1O)C[C@H](C(C)(C)O)O2 [Compound 7, eurothiocin A]			potential α-glucosidase inhibitor
